From patent US12528840B2, “Transcription active complex targeting cancer drug from viral protein sequence” (The Regents of the University of California, priority 2020, dated 2026) come the findings set out here.

In one experiment the test system is THP-1. The experiment in a line: MTT assay, THP-1. Type of experiment: cell-based. To be noted: THP-1 monocytic leukemia cell line. On the procedure: (§1) FIG. 6. Viral and cellular responses to K-Rta peptide; identification of VGN50. (a) Protein sequence alignment. FIG. 6(A) The effect of VGN50 on various cancer cell types. MTT assays were performed with the indicated cell lines treated with various VGN50 concentrations. The O.D. of mock-treated samples were set as 100%, and O.D. from detergent treated cells were set as 0%. Percentage viability+/−SD was calculated for each treatment (N=3 samples/treatment). FIG. 6(B) Viability assay with flow cytometry. Cell viability was measured in triplicate with live/dead staining and the cell killing effects on cancer cells was compared with normal peripheral blood mononuclear cells (PBMC) from three healthy donors. Results are presented as percentage viability+/−SD deviation (N=3 samples/group).
(§2) As shown in FIG. 6(a), multiple cancer cell lines were used for MTT assay to evaluate cancer cell killing efficacies of the MBK50 peptide at different concentrations (cell variability studies). […] Importantly, human peripheral blood mononuclear cells (PBMCs) from healthy donors were approximately 10-fold less sensitive to MBK-mediated killing compared to myeloid and lymphoid cancer cell lines (e.g., THP-1 and BCBL-1) as assessed by flow cytometry after live/dead staining (FIG. 6(b)). […]
For orientation: Tetrazolium dyes change colour on reduction, which living cells bring about.

In a further experiment the test system is BCBL-1 PEL cells. The experiment in a line: Cytokines in ascites of BCBL-1 PEL xenograft mice (Olink inflammatory panel). Type of experiment: in vivo. As for the experimental part: Also, the effect of peptide on cytokine production by BCBL-1 PEL cells in xenograft mouse model was studied. Acsite was collected from NRG mice baring BCBL-1 PELs, which were either treated with wild type MBK50 (Wt) peptide (n=3), control Mut peptide (n=3) or left untreated (n=3) for 20 days. The levels of cytokines in the ascites were measured by Olink technology using inflammatory panel that can detect 92 inflammatory proteins. Data was analyzed with Olink Insights Stat analysis software. […] Thus, inflammatory protein expression profile of Wt peptide is distinct from the profile of other groups. […] On the right panel in (FIG. 12c), 15 cytokine expression levels expressed in NPX units, Olink's arbitrary unit, on log 2 scale were compared between untreated, mutant peptide and Wt peptide-treated groups.

Experiment [1] relates to MYC. The experiment in a line: Intracellular staining of MYC in LPS-activated THP-1 cells. The conditions noted are these: THP-1, LPS 100 ng/ml, 16 μM, 24 hours. Type of experiment: cell-based. The source says:
FIG. 16. Effect of MBK50 on MYC and IRF4 expression in LPS-activated monocytic leukemia cell line THP-1 cells. […] MYC and IRF4 expression levels were examined by intracellular staining of MYC and IRF4 with isotype control staining followed by flow cytometry. FIG. 16(a) A scheme of the experimental procedure. FIG. 16(b) A representative histogram overlay for the MYC expression in THP-1 cells treated with MBK50, mutant control peptide or PBS, with isotype control. The average mean fluorescent intensity (MFI) for MYC expression (n=3) for each treatment is shown in the right panel. FIG. 16(c) A representative histogram overlay for the IRF4 expression (red) in THP-1 cells treated with MBK50, mutant control peptide, or PBS, with isotype control (blue). The average MFI for IRF4 expression for each treatment is shown in the right panel.
MYC is important for monocytic cell proliferation, especially upon LPS stimulation. […] MYC and IRF4 expression levels were examined by intracellular staining of MYC and IRF4 with isotype control staining followed by flow cytometry (FIG. 16a). […] Also, the percentage of THP-1 cells with reduced IRF4 expression was increased by MBK50 treatment compared to mutant control peptide or PBS treatment.

Experiment [2] relates to human peripheral blood mononuclear cells (PBMCs). The experiment in a line: Viability by flow cytometry after live/dead staining, PBMC versus cancer cell lines. Type of experiment: cell-based. To be noted: healthy donor PBMCs vs e.g. THP-1 and BCBL-1. As for the experimental part: as §1, §2
The test system of experiment [3] is MYC. The experiment in a line: qRT-PCR of MYC expression. Type of experiment: cell-based. To be noted: qRT-PCR with specific primers. On the procedure: FIGS. 1A-H. Viral protein sequence based cancer drug. (FIG. 1A) Discovery of hijacking transcription machinery in KSHV reactivating cells (Chen et al., J. Virol 2017). […] (FIG. 1B) Reporter assay. KSHV ORF50 overexpression inhibits MYC activation. (FIG. 1C) Chromatin immunoprecipitation with Mass Spectrometry. Proteins inducibly interact with both ORF50 and RNA polII are shown. […] (FIG. 1E) Mapping of interacting domain. GST-pull down was performed to identify NCoA2 binding domains. Purified NCoA2 was made from recombinant baculovirus infected cells and KSHV ORF50 deletion proteins were made in E. coli. Peptides are then generated as TAT-fusion for cell penetration. (FIG. 1F) ChIP-seq and RNA-seq. ChIP-seq was performed to identify NCOA2 target genes in primary effusion lymphoma cells. NCoA2 localization is highly associated with active genes and localizes with RNA pol II at enhancer regions. […] The qRT-PCR was performed with specific primers. (FIG. 1H) Gene set enrichment analyses (GSEA). RNA sequencing was performed with peptide-treated PEL cells. […] (FIG. 1I) The peptide drug. Wt peptide or mutant peptide was incubated in culture media. Forty-eight hours later, live cells were measured by applying MTS. Cell viability was compared with no-treated samples. No treated sample was set as 1.
Background: In qPCR the cycle at which signal appears reflects the starting amount.

The next experiment has as its system MYC target genes. The experiment in a line: Total RNA sequencing with Gene Set Enrichment Analyses. The conditions noted are these: total RNA-sequence 24 hours post-drug treatment, PEL cells. Type of experiment: cell-based. As for the experimental part:
FIGS. 1A-H. Viral protein sequence based cancer drug. (FIG. 1A) Discovery of hijacking transcription machinery in KSHV reactivating cells (Chen et al., J. Virol 2017). […] (FIG. 1B) Reporter assay. KSHV ORF50 overexpression inhibits MYC activation. (FIG. 1C) Chromatin immunoprecipitation with Mass Spectrometry. Proteins inducibly interact with both ORF50 and RNA polII are shown. […] (FIG. 1E) Mapping of interacting domain. GST-pull down was performed to identify NCoA2 binding domains. Purified NCoA2 was made from recombinant baculovirus infected cells and KSHV ORF50 deletion proteins were made in E. coli. Peptides are then generated as TAT-fusion for cell penetration. (FIG. 1F) ChIP-seq and RNA-seq. ChIP-seq was performed to identify NCOA2 target genes in primary effusion lymphoma cells. NCoA2 localization is highly associated with active genes and localizes with RNA pol II at enhancer regions. […] The qRT-PCR was performed with specific primers. (FIG. 1H) Gene set enrichment analyses (GSEA). […] Forty-eight hours later, live cells were measured by applying MTS. […]
Thiol(SH)-linked alkylation for the metabolic sequencing of RNA (SLAM seq), an orthogonal-chemistry-based RNA sequencing technology detects 4-thiouridine (s4U) incorporation in RNA species at single-nucleotide resolution. […] IGV viewer was used to visualize sequence reads at MYC region (Chr. 8). […]

With LSSILQGLYQLDT [MBK50], the “sensitivity to cell killing” value in the experiment with THP-1 was “sensitive”. Moreover, in the experiment on BCBL-1 PEL cells, the “decrease of CXCL10” value is ~200 fold, the “decrease of VEGFA” value is reported as ~4 fold and the “expression change of the majority of the 15 cytokines” value was “about 2 fold”. The “PC analysis of 92 inflammatory protein expression profiles” value in the experiment with BCBL-1 PEL cells (20 days treatment) is listed as “away from the cluster”. In the experiment on BCBL-1 PEL cells (p<0.05), the “number of cytokines significantly up- or down-regulated among 92” value was 15. For the same sequence, the “MYC expression (MFI)” value with MYC [1] was “significantly reduced”. Moreover, in experiment [2], the “lower sensitivity of PBMCs to killing compared to myeloid and lymphoid cancer cell lines” value is “approximately 10 fold”. In addition, in the experiment on MYC [3], the MYC expression entry is reported as “Down modulation”. For the same sequence, in the experiment on MYC target genes, the “GSEA of MYC target genes” value is “highest enrichment scores with zero false discovery rate”. Besides, the “GSEA of MYC target genes” value in the experiment on MYC target genes (listed as Wt-peptide) is “enrichment of MYC-target gene down-regulation”.
